Reference: PMC11672547, “Combination of Coevolutionary Information and Supervised Learning Enables Generation of Cyclic Peptide Inhibitors with Enhanced Potency from a Small Data Set” (ACS Central Science, 2024)
Numbered stars: 1 amine (or outer) side, 2 acyl side, 3 side chain; on linkers, the order of the positions; unused ones are H or OH. Bridge positions count the residues as written; N and C are the ends. Peptide text beside a SMILES is read from it. TBMB = c1c(C[*:1])cc(C[*:3])cc1C[*:2]

Biological target: T1, human urokinase-type plasminogen activator (huPA) (Homo sapiens, UniProt P00749)
T1 construct: (UPA-LMW, Molecular Innovations, Novi, MI, USA) 1.5 nM; purchased Molecular Innovations UPA-LMW
Assay: huPA inhibition, fluorogenic enzyme activity assay (Z-Gly-Gly-Arg-AMC), Ki by Cheng-Prusoff
Assay type: biochemical
Conditions: 25 °C, pH 7.4, substrate 50 μM, mean ± S.E. of at least three measurements, read-out: Ki
Protocol: bicyclic peptides. The activity assay was performed by incubating […] huPA with 50 μM fluorogenic substrate Z-Gly-Gly-Arg-AMC (50 μM; Bachem, Bubendorf, Switzerland) and […]
NaCl, 10 mM MgCl2, 1mM CaCl2, 0.1% w/v BSA, 0.01% v/v Triton-X100 and 5% v/v DMSO.
The measurements were performed on a Tecan microplate reader (Tecan infinite 200 pro, Tecan Trading AG, Switzerland) using black microfluor 96-well plate Nunc MicroWell, (Thermo Fisher Scientific, Dreieich, Germany) The enzymatic reactions were performed at 25 °C for 30 min, under shacking with an excitation wavelength of 355 nm and an emission recording at 460 nm. The initial velocities were monitored as changes in fluorescence intensity. The sigmoidal curves were fitted to the data using the following non-linear regression equation for the inhibitory dose-response curves with variable slope (2): […]
where x is the peptide concentration, y is the residual percentage of protease activity and p is the hill slope. Half maximum inhibitory concentration (IC50) values were derived from the fitted curves from GraphPad Prism 8 8.0.0. software (GraphPad software, Inc., San Diego, California). The final Ki was subsequently determined using the Cheng-Prusoff equation (3): […]
where Km (115 μM) is the Michaelis constant for the hydrolysis of Z-Gly-Gly-Arg-AMC catalysed by huPA which has been determined by standard Michaelis-Menten equation.
Values were determined using either OriginPro 8G software (OriginLab Corporation, Northamppton, MA, USA) or GraphPad Prism 8.0.0. software (GraphPad software, Inc., San […]
Recombinant production of the catalytic domain of human urokinase-type […]
The low molecular weight (LMW) human urokinase-type plasminogen activator (huPA) comprising the truncated 23 amino acid peptide fragment of chain A (Lys136-Lys158 in […]

Ki [nM]	SMILES
874	CC(C)[C@@H]1NC(=O)CNC(=O)[C@@H]2CSCc3cc(cc(c3)CSC[C@@H](C(=O)NCC(N)=O)NC(=O)[C@H](CC(=O)O)NC(=O)CNC(=O)[C@@H]3CCCN3C(=O)[C@H](CC(=O)O)NC1=O)CSC[C@H](NC(=O)[C@H](C)N)C(=O)N[C@@H](CC(N)=O)C(=O)N[C@@H](CO)C(=O)N[C@@H](CCCCN)C(=O)N[C@@H](Cc1ccccc1)C(=O)N[C@@H](CO)C(=O)NCC(=O)N2 [UK975] (H-ACNSKFSGCGVDPGDCG-NH2; linker 2-9-16 via TBMB)
119 ± 0.9	CC(C)[C@@H]1NC(=O)CNC(=O)[C@@H]2CSCc3cc(cc(c3)CSC[C@@H](C(=O)NCC(N)=O)NC(=O)[C@H](CC(=O)O)NC(=O)[C@H](CO)NC(=O)[C@@H]3CCCN3C(=O)[C@H](CC(=O)O)NC1=O)CSC[C@H](NC(=O)[C@H](C)N)C(=O)N[C@@H](CC(N)=O)C(=O)N[C@@H](CO)C(=O)N[C@@H](CCCCN)C(=O)N[C@@H](Cc1ccccc1)C(=O)N[C@@H](CO)C(=O)NCC(=O)N2 [UK976] (H-ACNSKFSGCGVDPSDCG-NH2; linker 2-9-16 via TBMB)
157 ± 1.1	CC(C)[C@@H]1NC(=O)CNC(=O)[C@@H]2CSCc3cc(cc(c3)CSC[C@@H](C(=O)NCC(N)=O)NC(=O)[C@H](CCC(=O)O)NC(=O)CNC(=O)[C@@H]3CCCN3C(=O)[C@H](CC(=O)O)NC1=O)CSC[C@H](NC(=O)[C@H](C)N)C(=O)N[C@@H](CC(N)=O)C(=O)N[C@@H](CO)C(=O)N[C@@H](CCCCN)C(=O)N[C@@H](Cc1ccccc1)C(=O)N[C@@H](CO)C(=O)NCC(=O)N2 [UK977] (H-ACNSKFSGCGVDPGECG-NH2; linker 2-9-16 via TBMB)
72 ± 0.7	CC(C)[C@@H]1NC(=O)CNC(=O)[C@@H]2CSCc3cc(cc(c3)CSC[C@@H](C(=O)NCC(N)=O)NC(=O)[C@H](CCC(=O)O)NC(=O)[C@H](CO)NC(=O)[C@@H]3CCCN3C(=O)[C@H](CC(=O)O)NC1=O)CSC[C@H](NC(=O)[C@H](C)N)C(=O)N[C@@H](CC(N)=O)C(=O)N[C@@H](CO)C(=O)N[C@@H](CCCCN)C(=O)N[C@@H](Cc1ccccc1)C(=O)N[C@@H](CO)C(=O)NCC(=O)N2 [UK978] (H-ACNSKFSGCGVDPSECG-NH2; linker 2-9-16 via TBMB)

Further lines, the molecule ahead of its results:

SMILES	Ki [nM]
CC(C)[C@@H]1NC(=O)[C@H](Cc2ccc(O)cc2)NC(=O)[C@H](CCCNC(=N)N)NC(=O)[C@H](CO)NC(=O)[C@@H](NC(=O)[C@H](C)N)CSCc2cc3cc(c2)CSC[C@@H](C(=O)NCC(N)=O)NC(=O)[C@@H]2CCCN2C(=O)CNC(=O)CNC(=O)[C@H](CCCNC(=N)N)NC(=O)CNC(=O)[C@H](CCCNC(=N)N)NC(=O)[C@H](CSC3)NC(=O)[C@H](CC(=O)O)NC(=O)[C@H](C(C)C)NC1=O [UK968] (H-ACSRYVVDCRGRGGPCG-NH2; linker 2-9-16 via TBMB)	5.5 ± 0.4
CC(C)[C@@H]1NC(=O)[C@H](Cc2ccc(O)cc2)NC(=O)[C@H](CCCNC(=N)N)NC(=O)[C@H](CC(=O)O)NC(=O)[C@@H](NC(=O)[C@H](C)N)CSCc2cc3cc(c2)CSC[C@@H](C(=O)NCC(N)=O)NC(=O)[C@@H]2CCCN2C(=O)CNC(=O)CNC(=O)[C@H](CCCNC(=N)N)NC(=O)CNC(=O)[C@H](CCCNC(=N)N)NC(=O)[C@H](CSC3)NC(=O)[C@H](CC(=O)O)NC(=O)[C@H](C(C)C)NC1=O [UK969] (H-ACDRYVVDCRGRGGPCG-NH2; linker 2-9-16 via TBMB)	5.3 ± 0.2
CC(C)[C@@H]1NC(=O)[C@H](Cc2c[nH]c3ccccc23)NC(=O)[C@H](CCCNC(=N)N)NC(=O)[C@H](CO)NC(=O)[C@@H](NC(=O)[C@H](C)N)CSCc2cc3cc(c2)CSC[C@@H](C(=O)NCC(N)=O)NC(=O)[C@@H]2CCCN2C(=O)CNC(=O)CNC(=O)[C@H](CCCNC(=N)N)NC(=O)CNC(=O)[C@H](CCCNC(=N)N)NC(=O)[C@H](CSC3)NC(=O)[C@H](CC(=O)O)NC(=O)[C@H]([C@@H](C)O)NC1=O [UK972] (H-ACSRWVTDCRGRGGPCG-NH2; linker 2-9-16 via TBMB)	14.8
CC(C)[C@@H]1NC(=O)[C@H](Cc2ccccc2)NC(=O)[C@H](CCCNC(=N)N)NC(=O)[C@H](CO)NC(=O)[C@@H](NC(=O)[C@H](C)N)CSCc2cc3cc(c2)CSC[C@@H](C(=O)NCC(N)=O)NC(=O)[C@@H]2CCCN2C(=O)CNC(=O)CNC(=O)[C@H](CCCNC(=N)N)NC(=O)CNC(=O)[C@H](CCCNC(=N)N)NC(=O)[C@H](CSC3)NC(=O)[C@H](CC(=O)O)NC(=O)[C@H]([C@@H](C)O)NC1=O [UK973] (H-ACSRFVTDCRGRGGPCG-NH2; linker 2-9-16 via TBMB)	15.3
CC(C)[C@@H]1NC(=O)CNC(=O)[C@@H]2CSCc3cc(cc(c3)CSC[C@@H](C(=O)NCC(N)=O)NC(=O)[C@H](CO)NC(=O)CNC(=O)[C@@H]3CCCN3C(=O)[C@H](CC(=O)O)NC1=O)CSC[C@H](NC(=O)[C@H](C)N)C(=O)N[C@@H](CC(N)=O)C(=O)N[C@@H](CO)C(=O)N[C@@H](CCCCN)C(=O)N[C@@H](Cc1ccccc1)C(=O)N[C@@H](CO)C(=O)NCC(=O)N2 [UK974] (H-ACNSKFSGCGVDPGSCG-NH2; linker 2-9-16 via TBMB)	363

Biological target: T2, murine uPA (muPA) (Mus musculus, UniProt P06869)
T2 construct: mouse uPA (MUPA-LMW,; purchased Molecular Innovations MUPA-LMW
Assay: Specificity determination, residual protease activity (fluorogenic substrate)
Assay type: biochemical
Conditions: 25 °C, pH 7.4, Z-Gly-Gly-Arg-AMC 50 μM
Protocol: 5% v/v DMSO. Final concentrations of serine proteases were the following: human uPA (UPA-LMW, Molecular Innovations, Novi, MI, USA) 1.5 nM, mouse uPA (MUPA-LMW, Molecular Innovations, Novi, MI, USA) 12 nM, human tPA (HTPATC; Molecular Innovations, Novi, MI, USA) 7.5 nM, mouse tPA (MTPA, Molecular Innovations, Novi, MI, USA) 6 nM, human trypsin (HTRYP, Molecular Innovations, Novi, MI, USA) 0.05 nM, human plasmin (HPLM, Molecular Innovations, Novi, MI, USA) 1.5 nM, human plasma kallikrein (IHPKA, Innovative Research, Novi, MI, USA) 0.5 nM, human thrombin (IHT, Innovative Research, Novi, MI, USA) 10 nM, and human factor XIIa (IHFXIIa, Innovative Research, Novi, MI, USA) 6 nM. Two-fold dilutions of UK970 bicyclic peptide inhibitor were prepared ranging from 1 mM to 125 nM for all the proteases. For human uPA an extra two-fold UK970 inhibitor dilution experiment was performed by using inhibitor concentrations ranging from 2000 nM to 0.12 nM. For the determination of the Ki inhibitory constants, the following fluorogenic substrates were used at final concentration of 50 μM: Z-Gly-Gly-Arg-AMC (for human uPA, murine uPA, human tPA, murine tPA, human trypsin, human thrombin and human factor XIIa; Bachem, Bubendorf, Switzerland), Z-Phe-Arg-AMC (for human plasma kallikrein; Bachem, Bubendorf, Switzerland) and H-D-Val-Leu-Lys-AMC (for human plasmin; Bachem, Bubendorf, Switzerland). The initial velocities were monitored as changes in fluorescence intensity during 30 min on a Tecan microplate reader (Tecan infinite 200 pro, Tecan Trading AG, Switzerland) using black microfluor 96-well plate Nunc MicroWell (Thermo Fisher Scientific, Dreieich, Germany). The enzymatic reactions were performed at 25 °C under shacking with an excitation wavelength of 355 nm and an emission recording at 460 nm.
Apparent equilibrium constants Kiapps values were determined by non-linear regression analyses of Vi/V0 versus [I]0 using equation (2). The final Kis were subsequently determined by correcting for the competitive effect of the substrate [S]0 using equation (3). The kinetic constants Kms for the hydrolysis of fluorogenic substrate, catalysed by each protease, were determined by standard Michaelis-Menten equation. Values were determined using either OriginPro 8G software (OriginLab Corporation, Northamppton, MA, USA) or GraphPad Prism 8.0.0. software (GraphPad software, Inc., San Diego, California). […]

T2 sequence (P06869 180-433 limits assumed): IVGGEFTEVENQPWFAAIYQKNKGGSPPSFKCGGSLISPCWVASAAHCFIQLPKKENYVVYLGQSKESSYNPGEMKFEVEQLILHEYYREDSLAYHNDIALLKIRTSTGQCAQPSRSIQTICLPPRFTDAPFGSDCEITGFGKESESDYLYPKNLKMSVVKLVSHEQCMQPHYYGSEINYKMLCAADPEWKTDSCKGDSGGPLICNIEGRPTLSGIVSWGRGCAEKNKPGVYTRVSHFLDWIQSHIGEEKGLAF
T2 sequence (P06869 157-178 partner limits assumed): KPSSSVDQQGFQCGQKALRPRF

Ki [nM]	SMILES
1700	CC(C)[C@@H]1NC(=O)CNC(=O)[C@@H]2CSCc3cc(cc(c3)CSC[C@@H](C(=O)NCC(N)=O)NC(=O)[C@H](CCC(=O)O)NC(=O)[C@H](CO)NC(=O)[C@@H]3CCCN3C(=O)[C@H](CC(=O)O)NC1=O)CSC[C@H](NC(=O)[C@H](C)N)C(=O)N[C@@H](CC(N)=O)C(=O)N[C@@H](CO)C(=O)N[C@@H](CCCCN)C(=O)N[C@@H](Cc1ccccc1)C(=O)N[C@@H](CO)C(=O)NCC(=O)N2 [UK978] (H-ACNSKFSGCGVDPSECG-NH2; linker 2-9-16 via TBMB)
